Data published in US10927123B2, “Modulators of the beta-3 adrenergic receptor useful for the treatment or prevention of disorders related thereto” (Arena Pharmaceuticals, Inc., priority 2016, dated 2021).

Target: Beta-3 Adrenergic Receptor (Homo sapiens (Human), UniProt P13945)
Experiment: HTRF cAMP antagonist assay (IC50 determination)
Assay type: cell-based
Settings: CHO-K1 cells stably expressing recombinant receptor; antagonism of isoproterenol at EC90; cAMP readout
Description: HTRF cAMP assays were performed according to manufacturer's instructions (Cisbio, cAMP Dynamic 2 Assay Kit; #62AM4PEJ). CHO-K1 cells stably expressing recombinant receptor were harvested and suspended in warm PBS to make a 300,000 cells/mL stock. This cell suspension was dispensed into 384 well assay plates (PerkinElmer ProxiPlate #6008280) at 5 μL per well (1500 cells/well) along with a cAMP standard curve.
Compounds were dissolved and serially diluted (5-fold) in DMSO to generate a 10-point dose response stock. The stock was then diluted 100-fold in assay buffer (PBS containing 1 mM IBMX) before a volume of 2.5 μL was added to the cells (the final, top concentration of compound in the dose-response is typically 10 or 100 μM). After a brief incubation, 2.5 μL of isoproterenol stock, prepared at a concentration 4 times its EC90 at the receptor of interest, was added to the wells. The EC90 for isoproterenol, a beta-adrenergic agonist, was determined in separate experiments using standard methods to measure agonist potencies.
Following a 1-hour incubation at room temperature, 5 μL of cAMP-D2 Reagent diluted in Lysis Buffer was added to each well followed by 5 μL of Cryptate Reagent. Plates were further incubated at room temperature for 1 hour prior to reading. Time resolved fluorescence measurements were collected on a suitable, HTRF-capable plate reader.
Counts from the plate reader were fit to the cAMP standard curve on the assay plate in order to determine cAMP concentrations in each well, and these values were used to construct dose-response curves to obtain IC50 values.

Sequence of Beta-3 Adrenergic Receptor (P13945 whole entry, species assumed): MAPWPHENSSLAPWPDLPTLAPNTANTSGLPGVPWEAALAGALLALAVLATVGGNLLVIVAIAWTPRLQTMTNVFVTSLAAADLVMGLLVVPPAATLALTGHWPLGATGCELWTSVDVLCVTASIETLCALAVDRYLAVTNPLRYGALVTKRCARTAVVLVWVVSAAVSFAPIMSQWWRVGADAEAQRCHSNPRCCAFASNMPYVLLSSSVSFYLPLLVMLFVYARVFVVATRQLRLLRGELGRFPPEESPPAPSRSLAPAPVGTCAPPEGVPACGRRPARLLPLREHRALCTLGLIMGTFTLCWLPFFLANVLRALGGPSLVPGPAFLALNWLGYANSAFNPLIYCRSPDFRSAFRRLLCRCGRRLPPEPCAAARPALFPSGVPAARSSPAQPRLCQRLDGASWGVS

IC50 [nM] | SMILES
79.9 | CS(=O)(=O)c1ccc(OC[C@@H](O)CNC2COC3(CCN(S(=O)(=O)c4ccc5ccccc5c4)CC3)C2)cc1 (stereo partly drawn) [Compound 334, (2S)-1-(4-(methylsulfonyl)phenoxy)-3-(8-(naphthalen-2-ylsulfonyl)-1-oxa-8-azaspiro[4.5]decan-3-ylamino)propan-2-ol]
55.1 | O=S(=O)(CCO)c1cccc(OC[C@@H](O)CN[C@H]2COC3(CCN(S(=O)(=O)c4cccc(-c5cccc(F)n5)c4)CC3)C2)c1 [Compound 134, (S)-1-((R)-8-(3-(6-fluoropyridin-2-yl)phenylsulfonyl)-1-oxa-8-azaspiro[4.5]decan-3-ylamino)-3-(3-(2-hydroxyethylsulfonyl)phenoxy)propan-2-ol]
89 | O=S(=O)(CCO)c1cccc(OC[C@@H](O)CN[C@H]2COC3(CCN(S(=O)(=O)c4ccc5cccnc5c4)CC3)C2)c1 [Compound 98, (S)-1-(3-(2-hydroxyethylsulfonyl)phenoxy)-3-((R)-8-(quinolin-7-ylsulfonyl)-1-oxa-8-azaspiro[4.5]decan-3-ylamino)propan-2-ol]
16.6 | CCOc1ccc(-c2ccc(CN)cc2)cc1S(=O)(=O)N1CCC2(CC1)C[C@H](NC[C@H](O)COc1cccc(S(=O)(=O)C(C)C)c1)CO2 [Compound 232, (S)-1-((S)-8-(4′-(aminomethyl)-4-ethoxybiphenyl-3-ylsulfonyl)-1-oxa-8-azaspiro[4.5]decan-3-ylamino)-3-(3-(isopropylsulfonyl)phenoxy)propan-2-ol]
23.9 | CCn1cc(S(=O)(=O)N2CCC3(CC2)C[C@@H](NC[C@H](O)COc2cccc(S(=O)(=O)C4CC4)c2)CO3)c(=O)c2cccc(C)c21 [Compound 315, 3-((R)-3-((S)-3-(3-(cyclopropylsulfonyl)phenoxy)-2-hydroxypropylamino)-1-oxa-8-azaspiro[4.5]decan-8-ylsulfonyl)-1-ethyl-8-methylquinolin-4(1H)-one]
62.9 | CCn1cc(S(=O)(=O)N2CCC3(CC2)C[C@@H](NC[C@H](O)COc2cccc(S(=O)(=O)COC)c2)CO3)c(=O)c2ccccc21 [Compound 306, 1-ethyl-3-((R)-3-((S)-2-hydroxy-3-(3-(methoxymethylsulfonyl)phenoxy)propylamino)-1-oxa-8-azaspiro[4.5]decan-8-ylsulfonyl)quinolin-4(1H)-one]
4.45 | CS(=O)(=O)c1cccc(OC[C@@H](O)CN[C@@H]2COC3(CCN(S(=O)(=O)c4ccc5ccccc5c4)CC3)C2)c1 [Compound 4, (S)-1-(3-(methylsulfonyl)phenoxy)-3-((S)-8-(naphthalen-2-ylsulfonyl)-1-oxa-8-azaspiro[4.5]decan-3-ylamino)propan-2-ol]
12.3 | CS(=O)(=O)c1cccc(OC[C@@H](O)CNC2COC3(CCN(S(=O)(=O)c4ccc5c(Cl)cccc5c4)CC3)C2)c1 (stereo partly drawn) [Compound 59, (2S)-1-(8-(5-chloronaphthalen-2-ylsulfonyl)-1-oxa-8-azaspiro[4.5]decan-3-ylamino)-3-(3-(methylsulfonyl)phenoxy)propan-2-ol]
13.6 | Cc1cc(S(=O)(=O)N2CCC3(CC2)C[C@@H](NC[C@H](O)COc2cccc(S(=O)(=O)C4(CO)CC4)c2)CO3)ccc1Br [Compound 194, (S)-1-((R)-8-(4-bromo-3-methylphenylsulfonyl)-1-oxa-8-azaspiro[4.5]decan-3-ylamino)-3-(3-(1-(hydroxymethyl)cyclopropylsulfonyl)phenoxy)propan-2-ol]
242 | CS(=O)(=O)c1cccc(OC[C@H](O)CN[C@H]2COC3(CCN(S(=O)(=O)c4ccc5ccccc5c4)CC3)C2)c1 [Compound 23, (R)-1-(3-(methylsulfonyl)phenoxy)-3-((R)-8-(naphthalen-2-ylsulfonyl)-1-oxa-8-azaspiro[4.5]decan-3-ylamino)propan-2-ol]
18.8 | O=S(=O)(c1cnc2ccccc2c1)N1CCC2(CC1)C[C@@H](NC[C@H](O)COc1cccc(S(=O)(=O)C3(CO)CC3)c1)CO2 [Compound 136, (S)-1-(3-(1-(hydroxymethyl)cyclopropylsulfonyl)phenoxy)-3-((R)-8-(quinolin-3-ylsulfonyl)-1-oxa-8-azaspiro[4.5]decan-3-ylamino)propan-2-ol]
20.3 | Cn1cc(-c2cccc(S(=O)(=O)N3CCC4(CC3)CC(NC[C@H](O)COc3cccc(S(C)(=O)=O)c3)CO4)c2)cn1 (stereo partly drawn) [Compound 40, (2S)-1-(8-(3-(1-methyl-1H-pyrazol-4-yl)phenylsulfonyl)-1-oxa-8-azaspiro[4.5]decan-3-ylamino)-3-(3-(methylsulfonyl)phenoxy)propan-2-ol]
369 | Cc1cc(=O)[nH]c2ccc(S(=O)(=O)N3CCC4(CC3)C[C@@H](NC[C@H](O)COc3cccc(S(=O)(=O)C5(CO)CC5)c3)CO4)cc12 [Compound 236, 6-((R)-3-((S)-2-hydroxy-3-(3-(1-(hydroxymethyl)cyclopropylsulfonyl)phenoxy)propylamino)-1-oxa-8-azaspiro[4.5]decan-8-ylsulfonyl)-4-methylquinolin-2(1H)-one]
25 | COc1ccc(S(=O)(=O)N2CCC3(CC2)C[C@@H](NC[C@H](O)COc2cccc(S(=O)(=O)C4(CO)CC4)c2)CO3)cc1-c1ccc(C2(N)CC2)cc1 [Compound 199, (S)-1-((R)-8-(4′-(1-aminocyclopropyl)-6-methoxybiphenyl-3-ylsulfonyl)-1-oxa-8-azaspiro[4.5]decan-3-ylamino)-3-(3-(1-(hydroxymethyl)cyclopropylsulfonyl)phenoxy)propan-2-ol]
17.1 | O=S(=O)(c1cccc(OC[C@@H](O)CN[C@H]2COC3(CCN(S(=O)(=O)c4cnc5c(c4)NCCO5)CC3)C2)c1)C1CC1 [Compound 303, (S)-1-(3-(cyclopropylsulfonyl)phenoxy)-3-((R)-8-(2,3-dihydro-1H-pyrido[2,3-b][1,4]oxazin-7-ylsulfonyl)-1-oxa-8-azaspiro[4.5]decan-3-ylamino)propan-2-ol]
22.5 | Cc1ccc2ncc(S(=O)(=O)N3CCC4(CC3)C[C@@H](NC[C@H](O)COc3cccc(S(=O)(=O)C5CC5)c3)CO4)c(O)c2c1 [Compound 324, 3-((R)-3-((S)-3-(3-(cyclopropylsulfonyl)phenoxy)-2-hydroxypropylamino)-1-oxa-8-azaspiro[4.5]decan-8-ylsulfonyl)-6-methylquinolin-4-ol]
33.5 | COCCNCc1ccc(-c2cccc(S(=O)(=O)N3CCC4(CC3)C[C@H](NC[C@H](O)COc3cccc(S(=O)(=O)C5(CO)CC5)c3)CO4)c2)cc1 [Compound 247, (S)-1-(3-(1-(hydroxymethyl)cyclopropylsulfonyl)phenoxy)-3-((S)-8-(4′-((2-methoxyethylamino)methyl)biphenyl-3-ylsulfonyl)-1-oxa-8-azaspiro[4.5]decan-3-ylamino)propan-2-ol]
18.6 | NCCc1ccc(-c2cccc(S(=O)(=O)N3CCC4(CC3)C[C@@H](NC[C@H](O)COc3cccc(S(=O)(=O)C(F)(F)CO)c3)CO4)c2)cc1 [Compound 213, (S)-1-((R)-8-(4′-(2-aminoethyl)biphenyl-3-ylsulfonyl)-1-oxa-8-azaspiro[4.5]decan-3-ylamino)-3-(3-(1,1-difluoro-2-hydroxyethylsulfonyl)phenoxy)propan-2-ol]
11.6 | CCOc1ccc(-c2ccc(CN)cc2)cc1S(=O)(=O)N1CCC2(CC1)C[C@H](NC[C@H](O)COc1cccc(S(=O)(=O)C3CC3)c1)CO2 [Compound 160, (S)-1-((S)-8-(4′-(aminomethyl)-4-ethoxybiphenyl-3-ylsulfonyl)-1-oxa-8-azaspiro[4.5]decan-3-ylamino)-3-(3-(cyclopropylsulfonyl)phenoxy)propan-2-ol]
36.2 | CCCS(=O)(=O)c1cccc(OC[C@@H](O)CN[C@H]2COC3(CCN(S(=O)(=O)c4cnc5ccccc5c4)CC3)C2)c1 [Compound 139, (S)-1-(3-(propylsulfonyl)phenoxy)-3-((R)-8-(quinolin-3-ylsulfonyl)-1-oxa-8-azaspiro[4.5]decan-3-ylamino)propan-2-ol]
30.5 | CS(=O)(=O)c1cccc(OC[C@@H](O)CNC2COC3(CCN(S(=O)(=O)c4cccc(C#N)c4)CC3)C2)c1 (stereo partly drawn) [Compound 55, 3-(3-((S)-2-hydroxy-3-(3-(methylsulfonyl)phenoxy)propylamino)-1-oxa-8-azaspiro[4.5]decan-8-ylsulfonyl)benzonitrile]
108 | Cc1cccc(-c2cccc(S(=O)(=O)N3CCC4(CC3)C[C@@H](NC[C@H](O)COc3cccc(S(=O)(=O)CCO)c3)CO4)c2)n1 [Compound 128, (S)-1-(3-(2-hydroxyethylsulfonyl)phenoxy)-3-((R)-8-(3-(6-methylpyridin-2-yl)phenylsulfonyl)-1-oxa-8-azaspiro[4.5]decan-3-ylamino)propan-2-ol]
34.2 | O=S(=O)(CC1CC1)c1cccc(OC[C@@H](O)CNC2COC3(CCN(S(=O)(=O)c4ccc5ccccc5c4)CC3)C2)c1 (stereo partly drawn) [Compound 7, (2S)-1-(3-(cyclopropylmethylsulfonyl)phenoxy)-3-(8-(naphthalen-2-ylsulfonyl)-1-oxa-8-azaspiro[4.5]decan-3-ylamino)propan-2-ol]
739 | COCCCS(=O)(=O)c1cccc(OC[C@@H](O)CN[C@H]2COC3(CCN(S(=O)(=O)c4ccc5ncccc5c4)CC3)C2)c1 [Compound 132, (S)-1-(3-(3-methoxypropylsulfonyl)phenoxy)-3-((R)-8-(quinolin-6-ylsulfonyl)-1-oxa-8-azaspiro[4.5]decan-3-ylamino)propan-2-ol]
